Test results reported in patent US9427438B2, “Compositions and methods for treating Alzheimer's disease” (EIP Pharma, LLC, priority 2011, dated 2016).

Legend:
p38 MAPK = settings: neurons preincubated in vitro; cited from earlier work
[1] = cited from earlier work
[2] = system: Alzheimer's disease (AD) transgenic Tg2576 mouse model; test: Amyloid plaque load by Aβ immunohistochemistry after 2-week oral treatment of Tg2576 mice; assay type: in vivo; settings: Tg2576 mice aged 26 months, 3 mg/kg BID oral, 2 weeks
rodent arthritis models = settings: cited from earlier work
arthritis model = settings: 10 mg/kg dose, reference compound; cited from earlier work
IL-1β = IL-1β ELISA of brain tissue of treated Tg2576 mice; assay type: in vivo, mouse; settings: 3 mg/kg BID, 2 weeks, soluble dorsal cortex fraction
[3] = animals; cited from earlier work
hyperalgesia model = settings: cited from earlier work
[4] = cited from earlier work; remark: listed apart in the source
osteoarthritis model = settings: rats, 50 mg/kg; cited from earlier work
[5] = high doses; cited from earlier work
[6] = dogs; cited from earlier work

With C[S+]([O-])c1ccc(-c2nc(-c3ccc(F)cc3)c(-c3ccncc3)[nH]2)cc1 (stereo not drawn) [SB203580] as the compound, how does the “blocking of the enhancement of MAPT phosphorylation” value (p38 MAPK) read?
Its value is “could be blocked”.

For O=c1ncn2nc(Sc3ccc(F)cc3F)ccc2c1-c1c(Cl)cccc1Cl [VX-745], which plasma protein binding [1] is on record?
The plasma protein binding was “highly protein-bound”.

What about the “decrease of amyloid plaque area in the cortex as compared with vehicle” value ([2]; cortex) of the same compound?
Its value is 32.5%.

And the “mean amyloid plaque area, cortex” value ([2]; cortex (vehicle control 27.7%))?
Its value is 18.7%.

And the “decrease of amyloid plaque area in the hippocampus as compared with vehicle” value ([2]; hippocampus)?
Its value is 61.8%.

And the “mean amyloid plaque area, hippocampus” value ([2]; hippocampus (vehicle control 13.6%))?
The value was 5.2%.

And the anti-inflammatory activity (rodent arthritis models)?
Its anti-inflammatory activity is “significant anti-inflammatory activity”.

What about the “inhibition of paw swelling” value (arthritis model) of the same compound?
The value was “not as effective at inhibiting paw swelling as other compounds assayed”.

What about the “IL-1β levels compared to wild-type or control animals” value (IL-1β) of the same compound?
The value was “no increases in IL-1β levels”.

What about the “blood brain barrier penetration” value [3] of the same compound?
The value was “known to penetrate the blood brain barrier (BBB)”.

And the “effect on hyperalgesia at the lowest dose” value (hyperalgesia model; 3 mg/kg dose)?
Its value is “minimal effect”.

What about the “inhibition of hyperalgesic response” value (hyperalgesia model; rats, doses of 30 mg/kg, 10 mg/kg and 3 mg/kg) of the same compound?
Its value is “significant inhibition of hyperalgesic response”.

And the “adverse events in rheumatoid arthritis patients” value ([4]; 250 mg b.i.d., humans)?
Its value is “adverse events, including gastrointestinal effects such as diarrhea and abdominal pain, and elevations in liver transaminases”.

What about the “adverse neurological effects in humans” value [4] of the same compound?
The value was “not observed in humans”.

What about the “therapeutically effective unit dose for the treatment of rheumatoid arthritis” value ([4]; humans) of the same compound?
Its value is 250 mg.

And the “inhibition of knee degeneration compared to control animals” value (osteoarthritis model)?
The value was “statistically significant inhibition of knee degeneration”.

What about the “adverse neurological effects in animals” value [5] of the same compound?
The value was “experienced adverse neurological effects”.

What about the “brain levels relative to systemic levels” value [6] of the same compound?
Its value is “twice that of systemic levels”.
